These results are taken from ChEMBL document CHEMBL4699392, “Application of triazoles as bioisosteres and linkers in the development of microtubule targeting agents” (RSC Med Chem, 2020).

Molecules are shown by their SMILES. pIC50: −log10 of the molar value.

Assay [1] has as its target Tubulin. The assay is described as follows: Inhibition of tubulin polymerization (unknown origin) incubated for 1 hr by fluorescence based assay. It counts as protein-complex assay, Homo sapiens.
Assay [2] is described as follows: Inhibition of bovine brain tubulin polymerization by spectrometric analysis. In kind it is tissue-based, Bos taurus.
Assay [3] deals with BJAB. In words: Cytotoxicity against human BJAB cells assessed as reduction in cell viability incubated for 24 hrs by CASY cell counter method. In kind it is functional, cell-based.
For a further assay, the species on record is Sus scrofa. In words: Displacement of fluorescein-colchicine from pig brain tubulin incubated for 1 hr by fluorescence based gel exclusion assay. It counts as tissue-based. Conditions: concentration not given here.
The next assay concerns HT-29. The assay is described as follows: Cytotoxicity against human HT-29 cells assessed as reduction in cell viability incubated for 24 hrs by MTT assay. In kind it is functional, cell-based. Conditions: HT-29, 24 h. A general note: Tetrazolium dyes change colour on reduction, which living cells bring about.
For assay [4], the system named is HT-1080. The assay is described as follows: Cytotoxicity against human HT-1080 cells assessed as reduction in cell viability incubated for 24 hrs by MTT assay. Particulars: HT-1080, 24 h. It counts as functional, cell-based.
The test system of another assay is MCF7. In words: Cytotoxicity against human MCF7 cells assessed as reduction in cell viability incubated for 24 hrs by MTT assay. Conditions: MCF7, 24 h. It counts as functional, cell-based.
Assay [5] deals with A549. In words: Cytotoxicity against human A549 cells assessed as reduction in cell viability incubated for 24 hrs by MTT assay. In kind it is functional, cell-based. Conditions: A549, 24 h.
Assay [6] has as its system HT-1080. In words: Cytotoxicity against human HT-1080 cells. It counts as functional, cell-based.
For assay [7], the system named is SGC-7901. The assay is described as follows: Cytotoxicity against human SGC-7901 cells. It counts as functional, cell-based.
Assay [8] deals with A549. In words: Cytotoxicity against human A549 cells. In kind it is functional, cell-based.
A further assay deals with B16. In words: Cytotoxicity against mouse B16 cells assessed as reduction in cell viability incubated for 72 hrs by MTT assay. In kind it is functional, cell-based. Conditions: B16, 72 h.
In a further assay the test system is HeLa. The assay is described as follows: Cytotoxicity against human HeLa cells assessed as reduction in cell viability incubated for 48 hrs by MTT assay. It counts as functional, cell-based.
The subject of assay [9] is A549. In words: Cytotoxicity against human A549 cells assessed as reduction in cell viability incubated for 48 hrs by MTT assay. It counts as functional, cell-based. Conditions: A549, 48 h.
A short description of assay [10]: Cytotoxicity against Cervical carcinoma cell line (unknown origin) assessed as reduction in cell viability incubated for 72 hrs by MTT assay. In kind it is functional.
The nature of assay [11]: Cytotoxicity against Breast cancer cells (unknown origin) assessed as reduction in cell viability incubated for 72 hrs by MTT assay. In kind it is functional, cell-based. Conditions: Breast cancer cell line.
The nature of assay [12]: Cytotoxicity against Ovarian cancer cell line (unknown origin) assessed as reduction in cell viability incubated for 72 hrs by MTT assay. In kind it is functional.
Assay [13] in a line: Cytotoxicity against Prostate tumor cell line (unknown origin) assessed as reduction in cell viability incubated for 72 hrs by MTT assay. In kind it is functional.
Assay [14] is described as follows: Cytotoxicity against Leukemia cell line (unknown origin) assessed as reduction in cell viability incubated for 72 hrs by MTT assay. In kind it is functional.
The subject of assay [15] is BJAB. The assay is described as follows: Cytotoxicity against human BJAB cells. In kind it is functional, cell-based.
The subject of assay [16] is SGC-7901. In words: Cytotoxicity against human SGC-7901 cells assessed as reduction in cell viability incubated for 24 hrs by MTT assay. In kind it is functional, cell-based. Conditions: SGC-7901, 24 h.
In assay [17] the target is Tubulin. In words: Inhibition of tubulin polymerization (unknown origin) measured for every 1 min interval for 90 mins by fluorescence based assay. In kind it is protein-complex assay, Homo sapiens.

`O=C(c1cn(Cc2cccc(Oc3ccccc3)c2)nn1)c1cccnc1Nc1ccc(F)cc1` gave a negative-log IC50 (pIC50) against Tubulin [1] of 5.74.
`COc1cc(C(=O)n2nc(-c3ccc(C)cc3)nc2N)cc(OC)c1OC` showed a pIC50 in assay [2] of 6.18.
With `CCCCCCCCCCCC(=O)OCc1cn(C2CCc3cc(OC)c(OC)c(OC)c3-c3ccc(OC)c(=O)cc32)nn1` (centres undefined), the pIC50 in the assay with BJAB [3] is 8.00. Moreover, in the assay filed under Sus scrofa, the inhibition was > 80%.
Turning to `COc1cc(Cc2nnc(S)n2/N=C\c2cccc(Cl)c2Cl)cc(OC)c1OC`, the negative-log IC50 (pIC50) on Tubulin [1] was 6.77; with HT-29 it was 5.37; in the assay on HT-1080 [4] it was 4.90; in the assay on MCF7 it was 5.48; in the assay with A549 [5] it was 5.01.
On to `COc1cc(/C(=N/O)c2cnn(-c3ccccc3)n2)cc(OC)c1OC`, for which the pIC50 with HT-1080 [6], with SGC-7901 [7] and in the assay on A549 [8] was 6.92 throughout.
With `COc1ccc(/C=C\c2cc(OC)c(OC)c(OC)c2)cc1O` [COMBRETASTATIN A4], the negative logarithm of the IC50 (pIC50) in the assay with B16 is 4.25.
In the case of `COc1ccc(S(=O)(=O)Nc2cccnc2Nc2ccc(O)cc2)cc1` [ABT-751], the negative-log IC50 (pIC50) is 5.66 in the assay with HeLa and 5.79 in the assay with A549 [9].
On to `COc1cc(Nc2ncccc2NC(=O)c2cn(Cc3cccc(Oc4ccccc4)c3)nn2)cc(OC)c1`, for which the pIC50 is 5.69 against Tubulin [1], 5.88 in the assay on HeLa and 5.99 with A549 [9].
`COc1cc(-c2nncn2-c2ccc3c(ccn3C)c2)cc(OC)c1OC`: the pIC50 in [10], in assay [11], in assay [12], in assay [13] and in [14] was 8.68 each time.
`CCCCCCCCCCCCCCCCCC(=O)OCc1cn(C2CCc3cc(OC)c(OC)c(OC)c3-c3ccc(OC)c(=O)cc32)nn1` (centres undefined) had a pIC50 with BJAB [15] of 8.40.
For the molecule `COc1cccc(-c2nnc3n2N=C(c2ccc(OC)c(N)c2)CS3)c1`, the negative-log IC50 (pIC50) in the assay on SGC-7901 [16] is 7.96; at Tubulin [17] it was 5.80; in the assay on HT-1080 [4], 7.96; in the assay on A549 [5], 7.96.
Consider `CCCCCCCC/C=C\CCCCCCCC(=O)OCc1cn(C2CCc3cc(OC)c(OC)c(OC)c3-c3ccc(OC)c(=O)cc32)nn1` (centres undefined), for which the negative-log IC50 (pIC50) in the assay with BJAB [15] is 8.22.

A word on the pIC50: it is −log10 of the IC50, conventionally taken in molar units. The term inhibition denotes the share of the control response that was lost under treatment. Low readings indicate little suppression, high ones strong suppression.
